According to BindingDB's records for doi:10.1124/jpet.300.3.1122 (Sanofi-Synthelabo Recherche, 2002):

Key:
[1] = target: T1, Oxytocin receptor (Rattus norvegicus, UniProt P70536)
T1 sequence (P70536 whole entry): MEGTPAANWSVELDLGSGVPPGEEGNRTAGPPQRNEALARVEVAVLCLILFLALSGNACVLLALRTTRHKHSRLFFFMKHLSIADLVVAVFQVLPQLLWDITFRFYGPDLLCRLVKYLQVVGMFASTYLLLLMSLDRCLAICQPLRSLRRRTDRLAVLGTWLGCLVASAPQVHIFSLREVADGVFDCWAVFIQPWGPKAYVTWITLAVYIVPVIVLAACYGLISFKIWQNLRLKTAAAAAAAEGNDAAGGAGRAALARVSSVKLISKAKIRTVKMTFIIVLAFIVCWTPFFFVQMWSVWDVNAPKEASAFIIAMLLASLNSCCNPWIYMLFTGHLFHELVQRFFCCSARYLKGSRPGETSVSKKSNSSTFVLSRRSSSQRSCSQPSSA

[2] = target: Vasopressin V1a receptor (Rattus norvegicus, UniProt P30560)
Chain of Vasopressin V1a receptor (P30560 whole entry): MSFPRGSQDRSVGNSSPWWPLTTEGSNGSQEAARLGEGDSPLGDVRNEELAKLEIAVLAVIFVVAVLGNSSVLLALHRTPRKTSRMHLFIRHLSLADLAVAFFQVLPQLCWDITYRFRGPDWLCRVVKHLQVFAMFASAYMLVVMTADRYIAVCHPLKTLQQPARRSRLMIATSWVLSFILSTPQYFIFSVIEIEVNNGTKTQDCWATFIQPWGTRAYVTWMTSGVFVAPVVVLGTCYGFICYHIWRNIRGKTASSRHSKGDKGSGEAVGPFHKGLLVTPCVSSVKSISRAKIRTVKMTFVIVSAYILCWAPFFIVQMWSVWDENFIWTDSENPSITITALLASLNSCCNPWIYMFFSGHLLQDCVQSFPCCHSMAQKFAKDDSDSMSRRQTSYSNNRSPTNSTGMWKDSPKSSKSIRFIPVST

[3] = target: T2, Vasopressin V1b receptor (Bos taurus, UniProt F1ME85)
T2 sequence (F1ME85 whole entry): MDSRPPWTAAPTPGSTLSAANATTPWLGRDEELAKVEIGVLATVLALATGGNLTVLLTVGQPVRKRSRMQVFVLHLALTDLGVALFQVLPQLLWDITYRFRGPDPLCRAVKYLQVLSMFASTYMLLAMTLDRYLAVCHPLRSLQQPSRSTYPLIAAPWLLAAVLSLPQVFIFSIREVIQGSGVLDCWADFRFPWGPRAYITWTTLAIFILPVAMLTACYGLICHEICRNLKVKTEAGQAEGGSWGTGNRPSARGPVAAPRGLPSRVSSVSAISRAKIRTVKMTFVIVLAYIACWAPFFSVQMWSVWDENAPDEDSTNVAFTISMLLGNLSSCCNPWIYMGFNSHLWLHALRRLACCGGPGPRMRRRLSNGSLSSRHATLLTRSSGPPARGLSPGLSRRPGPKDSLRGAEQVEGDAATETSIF

[4] = target: Vasopressin V2 receptor (Rattus norvegicus, UniProt Q00788)
Chain of Vasopressin V2 receptor (Q00788 whole entry): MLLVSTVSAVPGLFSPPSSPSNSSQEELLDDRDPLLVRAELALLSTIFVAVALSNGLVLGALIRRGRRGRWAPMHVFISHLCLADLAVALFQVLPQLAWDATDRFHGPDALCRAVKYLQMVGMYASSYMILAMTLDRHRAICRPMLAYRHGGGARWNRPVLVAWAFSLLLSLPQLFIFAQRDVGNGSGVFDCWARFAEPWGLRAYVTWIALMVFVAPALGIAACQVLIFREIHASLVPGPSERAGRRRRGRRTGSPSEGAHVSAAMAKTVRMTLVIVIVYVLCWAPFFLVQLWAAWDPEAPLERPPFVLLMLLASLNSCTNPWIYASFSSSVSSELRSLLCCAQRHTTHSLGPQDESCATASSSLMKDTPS

Ki [1]: 270 nM | Ki [2]: 1050 nM | Ki [3]: 2.7 nM | Ki [4]: 2900 nM
SMILES: COc1ccc(S(=O)(=O)N2C(=O)[C@@](c3ccccc3OC)(N3C[C@H](O)C[C@H]3C(=O)N(C)C)c3cc(Cl)ccc32)c(OC)c1 [SSR149415]
